# Test results taken from US20210112813A1, “HERBICIDAL COMPOSITION AND USE THEREOF” (NANTONG JIANGSHAN AGROCHEMICAL & CHEMICALS CO., LTD., priority 2019, published 2021).
# What was measured:
# Type in all cases: in vivo
# Bristlegrass [1] = assay: Greenhouse pot test, pre-emergence soil treatment, visual control effect 30 days after treatment, Gowing method
# Description: In the present application, indoor combined action of the compound of herbicide active component A and B on weeds was measured to determine the combined effect of the composition on weeds, wherein the structure of the active component A was as follows:
# The weed cultivation method was as follows: quantitative weed seeds abutilon and bristlegrass were respectively sown in a paper cup filled with nutrient soil with a diameter of 7 cm, and then cultivated in the greenhouse after covering the soil, suppressing and watering. The post-emergence stem and leaf treatment was performed when the grass weeds grew to 5-7 leaf stage, broad-leaved weeds grew to 6-8 leaf stage; the pre-emergence soil treatment was performed the second day after sowing, and the early post-emergence treatment was performed after sowing and before emergence; the experiment was repeated 3 times. After the treatment and drug solution naturally dried, the weeds were placed in the greenhouse to be managed according to conventional methods. According to the suppression or death of the weeds, a visual control effect investigation was conducted 30 days after the treatment. The application adopted the Gowing method to evaluate the combined effect of the proposed composition.
# X—Weed control effect when the amount of herbicide component A is P;
# Y—Weed control effect when the amount of herbicide component B is Q;
# E0—Theoretical control effect when the amount of herbicide component A is […];
# E—The measured control effect after the herbicide component A and the herbicide component B are mixed according to the above ratio.
# When E−E0>10%, it is synergism; when E−E0<−10%, it is antagonism; when E−E0 value is between ±10%, it is addition.
# Lambsquarters [2] = assay: as above
# Amaranthusretroflexus = assay: Field plot test, non-cultivated weeds, pre-emergence soil treatment; conditions: Table 8, dose 600 ga.i./hm^2
# Description: (§1) The present application also conducted a medicinal efficacy test on weeds on the formulation examples containing herbicide active component A and active component B by the field plot test method, and clarified the control effect of the composition on non-cultivated weeds.
# (§2) According to the different components of different formulation examples, pre-emergence soil treatment, early post-emergence and post-emergence stem and leaf spray treatment were carried out respectively. The spraying device was Singapore Linong HD400 hand-operating knapsack sprayer (No. H17001), working pressure: […], spray rate: 640 mL/min, adjustable cone spraying nozzle (325787), spraying nozzle height: 0.5 m, spray width: 0.85 m, walking speed: about 16.7 m/min, and spray volume: […];
# Bristlegrass [3] = assay: as above; conditions: Table 8, dose 600 ga.i./hm^2
# Description: as §1, §2
# Crabgrass = assay: as above; conditions: Table 8, dose 600 ga.i./hm^2
# Description: as §1, §2
# Lambsquarters [4] = assay: as above; conditions: Table 8, dose 600 ga.i./hm^2
# Description: as §1, §2
compound,measurement,setting,value
COC[C@H](C)N(C(=O)CCl)c1c(C)csc1C [Dimethoxamid-P],Measured value E,"Bristlegrass [1]; Table 1, dose 75 ga.i./hm^2",30%
same,Measured value E,"Bristlegrass [1]; Table 1, dose 150 ga.i./hm^2",55%
same,Measured value E,"Lambsquarters [2]; Table 1, dose 75 ga.i./hm^2",35%
same,Measured value E,"Lambsquarters [2]; Table 1, dose 150 ga.i./hm^2",50%
same,"Control effect, Amaranthusretroflexus",Amaranthusretroflexus,80
same,"Control effect, Bristlegrass",Bristlegrass [3],55
same,"Control effect, Crabgrass",Crabgrass,70
same,"Control effect, Lambsquarters",Lambsquarters [4],75
COCC(C)N(C(=O)CCl)c1c(C)csc1C (stereo not shown) [Dimethoxamide],Measured value E,"Bristlegrass [1]; Table 1, dose 75 ga.i./hm^2",25%
same,Measured value E,"Bristlegrass [1]; Table 1, dose 150 ga.i./hm^2",40%
same,Measured value E,"Lambsquarters [2]; Table 1, dose 75 ga.i./hm^2",20%
same,Measured value E,"Lambsquarters [2]; Table 1, dose 150 ga.i./hm^2",35%
same,"Control effect, Amaranthusretroflexus",Amaranthusretroflexus,55
same,"Control effect, Bristlegrass",Bristlegrass [3],50
same,"Control effect, Crabgrass",Crabgrass,70
same,"Control effect, Lambsquarters",Lambsquarters [4],70
